The target of the experiment is T1, BTK (Homo sapiens, UniProt Q06187).
T1 construct: The GM01501.3 cell line endogenously expresses BTK with a HiBiT fusion tag via CRISPR knock-in at its C-terminal region; endogenous in cells; host or cells: GM01501.3 (GM01501 cells engineered by CRISPR knock-in of HiBiT at the BTK locus)
T1 sequence (Q06187 whole entry, the tested form may be a part): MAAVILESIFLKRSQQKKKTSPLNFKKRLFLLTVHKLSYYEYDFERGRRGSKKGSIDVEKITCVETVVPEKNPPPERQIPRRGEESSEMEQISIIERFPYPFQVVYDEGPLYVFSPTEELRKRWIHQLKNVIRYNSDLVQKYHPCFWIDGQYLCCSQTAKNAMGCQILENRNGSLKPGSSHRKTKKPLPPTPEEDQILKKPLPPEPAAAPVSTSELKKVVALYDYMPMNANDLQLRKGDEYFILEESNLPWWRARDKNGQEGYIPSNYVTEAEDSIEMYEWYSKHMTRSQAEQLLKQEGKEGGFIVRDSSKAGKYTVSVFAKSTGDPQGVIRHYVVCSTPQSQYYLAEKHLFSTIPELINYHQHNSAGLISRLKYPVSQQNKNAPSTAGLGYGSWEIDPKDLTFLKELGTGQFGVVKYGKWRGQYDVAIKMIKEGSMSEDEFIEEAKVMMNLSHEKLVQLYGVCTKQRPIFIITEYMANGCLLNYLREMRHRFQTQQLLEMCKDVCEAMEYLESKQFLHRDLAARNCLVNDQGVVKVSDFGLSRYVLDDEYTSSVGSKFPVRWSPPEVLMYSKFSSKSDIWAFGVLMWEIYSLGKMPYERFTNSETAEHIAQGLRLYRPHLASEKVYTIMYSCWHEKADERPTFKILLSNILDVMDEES
As to the kind of experiment: BTK degradation assay using the HiBiT Method (Nano-Glo HiBiT Lytic Assay, GM01501.3 cells). In kind it is cell-based. The settings on record: HiBiT Degradation on GM01501.3 BTK @ 6 hours. In short, it runs like this: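 CRISPR knock-in GM01501.3 cells expressing endogenous BTK with C-terminal HiBiT tag, treated 6 h at 37 °C with compounds, 11-point half-log titration from 10 μM top, duplicates. Remaining BTK quantified by Nano-Glo HiBiT lytic luminescence versus DMSO controls; DC50 reported.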
Compound `CC(C)(C)c1nc(C(=O)NCc2ccc(-c3ncnn4cc(-c5ccc(OCCN6CCC(n7ccc(NC8CCC(=O)NC8=O)n7)CC6)cc5)cc34)cc2F)no1` (stereo not shown) [Example 108, 5-tert-butyl-N-[[4-[6-[4-[2-[4-[3-[(2,6-dioxo-3-piperidyl)amino]pyrazol-1-yl]-1-piperidyl]ethoxy]phenyl]pyrrolo[2,1-f][1,2,4]triazin-4-yl]-2-fluoro-phenyl]methyl]-1,2,4-oxadiazole-3-carboxamide] yielded a DC50 below 0.1 µM.
`Cc1cc(-c2ncnn3cc(CCN4CCC(c5ncc(NC6CCC(=O)NC6=O)cc5F)CC4)cc23)ccc1CNC(=O)c1noc(C(C)(C)C)n1` (stereo not shown) [Example 251, 5-(tert-butyl)-N-(4-(6-(2-(4-(5-((2,6-dioxopiperidin-3-yl)amino)-3-fluoropyridin-2-yl)piperidin-1-yl)ethyl)pyrrolo[2,1-f][1,2,4]triazin-4-yl)-2-methylbenzyl)-1,2,4-oxadiazole-3-carboxamide] had a DC50 below 0.1 µM.
`Cc1cc(-c2ncnn3cc(CCCCN4CCC(c5ccc6c(N7CCC(=O)NC7=O)nn(C)c6c5)CC4)cc23)ccc1CNC(=O)c1cc(C(C)(C)C)no1` [Example 280, 3-(tert-butyl)-N-(4-(6-(4-(4-(3-(2,4-dioxotetrahydropyrimidin-1(2H)-yl)-1-methyl-1H-indazol-6-yl)piperidin-1-yl)butyl)pyrrolo[2,1-f][1,2,4]triazin-4-yl)-2-methylbenzyl)isoxazole-5-carboxamide] showed a DC50 below 0.1 µM.
As for `CC(C)(C)c1nc(C(=O)NCc2ccc(-c3ncnn4cc(-c5ccc(CN6CCCCC6Cc6ccc(OC7CCC(=O)NC7=O)cc6)cn5)cc34)cc2F)no1` (stereo not shown) [Example 233, 5-(tert-butyl)-N-(4-(6-(5-((2-(4-((2,6-dioxopiperidin-3-yl)oxy)benzyl)piperidin-1-yl)methyl)pyridin-2-yl)pyrrolo [2,1-f][1,2,4]triazin-4-yl)-2-fluorobenzyl)-1,2,4-oxadiazole-3-carboxamide], the DC50 was below 0.1 µM.
Turning to `CC(C)(C)c1nc(C(=O)NCc2ccc(-c3ncnn4cc(-c5ccc(CN6CCC(c7ccc(NC8CCC(=O)NC8=O)cn7)CC6)c(F)c5)cc34)cc2F)no1` (stereo not shown) [Example 222, 5-(tert-butyl)-N-(4-(6-(4-((4-(5-((2,6-dioxopiperidin-3-yl)amino)pyridin-2-yl)piperidin-1-yl)methyl)-3-fluorophenyl)pyrrolo[2,1-f][1,2,4]triazin-4-yl)-2-fluorobenzyl)-1,2,4-oxadiazole-3-carboxamide], the DC50 is below 0.1 µM.
In the case of `Cc1cc(-c2ncnn3cc(-c4nc(CN5CCC(c6ccc(C7CCC(=O)NC7=O)cc6)CC5)co4)cc23)ccc1CNC(=O)c1noc(C(C)(C)C)n1` (stereo not shown) [Example 219, 5-(tert-butyl)-N-(4-(6-(4-((4-(4-(2,6-dioxopiperidin-3-yl)phenyl)piperidin-1-yl)methyl)oxazol-2-yl)pyrrolo[2,1-f][1,2,4]triazin-4-yl)-2-methylbenzyl)-1,2,4-oxadiazole-3-carboxamide] it was below 0.1 µM; in that of `CC(C)(C)c1nc(C(=O)NCc2ccc(-c3ncnn4cc(-c5ccc(CN6CCc7ccc(OC8CCC(=O)NC8=O)cc7CC6)cn5)cc34)cc2F)no1` (stereo not shown) [Example 230, 5-(tert-butyl)-N-(4-(6-(5-((7-((2,6-dioxopiperidin-3-yl)oxy)-1,2,4,5-tetrahydro-3H-benzo[d]azepin-3-yl)methyl)pyridin-2-yl)pyrrolo [2,1-f][1,2,4]triazin-4-yl)-2-fluorobenzyl)-1,2,4-oxadiazole-3-carboxamide], below 0.1 µM; in that of `CC(C)(C)c1nc(C(=O)NCc2ccc(-c3ncnn4cc(-c5ccc(CN6CCC(c7ccc(NC8CCC(=O)NC8=O)cc7)CC6)cc5)cc34)cc2F)no1` (stereo not shown) [Example 44, 5-tert-butyl-N-[[4-[6-[4-[[4-[4-[(2,6-dioxo-3-piperidyl)amino]phenyl]-1-piperidyl]methyl]phenyl]pyrrolo[2,1-f][1,2,4]triazin-4-yl]-2-fluoro-phenyl]methyl]-1,2,4-oxadiazole-3-carboxamide], below 0.1 µM.
Regarding `CC(C)(C)c1nc(C(=O)NCc2ccc(-c3ncnn4cc(-c5ccc(CN6CCOCC6Cc6ccc(OC7CCC(=O)NC7=O)cc6)cn5)cc34)cc2F)no1` (stereo not shown) [Example 238, 5-(tert-butyl)-N-(4-(6-(5-((3-(4-((2,6-dioxopiperidin-3-yl)oxy)benzyl)morpholino)methyl)pyridin-2-yl)pyrrolo [2,1-f][1,2,4]triazin-4-yl)-2-fluorobenzyl)-1,2,4-oxadiazole-3-carboxamide], the DC50 is below 0.1 µM.
The compound `Cc1cc(-c2ncnn3cc(-c4cnc(Oc5ccc(CN6CCC(c7ccc(C8CCC(=O)NC8=O)cc7)CC6)cc5)nc4)cc23)ccc1CNC(=O)c1noc(C(C)(C)C)n1` (stereo not shown) [Example 206, 5-(tert-butyl)-N-(4-(6-(2-(4-((4-(4-(2,6-dioxopiperidin-3-yl)phenyl)piperidin-1-yl)methyl)phenoxy)pyrimidin-5-yl)pyrrolo[2,1-f][1,2,4]triazin-4-yl)-2-methylbenzyl)-1,2,4-oxadiazole-3-carboxamide] had a DC50 below 0.1 µM.
Turning to `CC1c2cc(OC3CCC(=O)NC3=O)ccc2CCN1Cc1ccc(-c2cc3c(-c4ccc(CNC(=O)c5noc(C(C)(C)C)n5)c(F)c4)ncnn3c2)nc1` (stereo not shown) [Example 232, 5-(tert-butyl)-N-(4-(6-(5-((7-((2,6-dioxopiperidin-3-yl)oxy)-1-methyl-3,4-dihydroisoquinolin-2(1H)-yl)methyl)pyridin-2-yl)pyrrolo[2,1-f][1,2,4]triazin-4-yl)-2-fluorobenzyl)-1,2,4-oxadiazole-3-carboxamide], the DC50 was 0.1 to 0.5 µM.
Consider `Cc1cc(-c2ncnn3cc(-c4ccc(CN5CCC(c6ccc(NC7CCC(=O)NC7=O)cc6)CC5)cc4)cc23)ccc1CNC(=O)c1nc(C(C)(C)C)co1` (stereo not shown) [Example 80, 4-tert-butyl-N-[[4-[6-[4-[[4-[4-[(2,6-dioxo-3-piperidyl)amino]phenyl]-1-piperidyl]methyl]phenyl]pyrrolo[2,1-f][1,2,4]triazin-4-yl]-2-methyl-phenyl]methyl]oxazole-2-carboxamide], for which the DC50 is below 0.1 µM.
`Cc1cc(-c2ncnn3cc(CCN4CCC(c5ccc6c(N7CCC(=O)NC7=O)nn(C)c6c5)C(F)(F)C4)cc23)ccc1CNC(=O)c1noc(C(C)(C)C)n1` (stereo not shown) [Example 253, 5-(tert-butyl)-N-(4-(6-(2-(4-(3-(2,4-dioxotetrahydropyrimidin-1(2H)-yl)-1-methyl-1H-indazol-6-yl)-3,3-difluoropiperidin-1-yl)ethyl)pyrrolo[2,1-f][1,2,4]triazin-4-yl)-2-methylbenzyl)-1,2,4-oxadiazole-3-carboxamide]: the DC50 is below 0.1 µM.
`Cc1cc(-c2ccnc3cc(CCCCN4CCC(c5ccc(NC6CCC(=O)NC6=O)cc5)CC4)nn23)ccc1CNC(=O)c1noc(C(C)(C)C)n1` (stereo not shown) [Example 163, 5-tert-butyl-N-[[4-[2-[4-[4-[4-[(2,6-dioxo-3-piperidyl)amino]phenyl]-1-piperidyl]butyl]pyrazolo[1,5-a]pyrimidin-7-yl]-2-methyl-phenyl]methyl]-1,2,4-oxadiazole-3-carboxamide] registered a DC50 below 0.1 µM.
`CC(C)(C)c1nc(C(=O)NCc2ccc(-c3ncnn4cc(-c5ccc(OCCN6CCC(c7ccc(NC8CCC(=O)NC8=O)nc7)CC6)cc5)cc34)cc2F)no1` (stereo not shown) [Example 110, 5-tert-butyl-N-[[4-[6-[4-[2-[4-[6-[(2,6-dioxo-3-piperidyl)amino]-3-pyridyl]-1-piperidyl]ethoxy]phenyl]pyrrolo[2,1-f][1,2,4]triazin-4-yl]-2-fluoro-phenyl]methyl]-1,2,4-oxadiazole-3-carboxamide]: the 50% degradation concentration (DC50) was below 0.1 µM.
`Cc1cc(-c2ncnn3cc(N4CCN(C(=O)CCC5CCCN5C(=O)c5ccc(OC6CCC(=O)NC6=O)cc5)CC4)cc23)ccc1CNC(=O)c1noc(C(C)(C)C)n1` (stereo not shown) [Example 181, 5-(tert-butyl)-N-(4-(6-(4-(3-(1-(4-((2,6-dioxopiperidin-3-yl)oxy)benzoyl)pyrrolidin-2-y1)propanoyl)piperazin-1-yl)pyrrolo[2,1-f][1,2,4]triazin-4-yl)-2-methylbenzyl)-1,2,4-oxadiazole-3-carboxamide] had a DC50 below 0.1 µM.
In turn, `Cc1cc(-c2ncnn3cc(-c4ccc(CN5CCC(c6ncc(NC7CCC(=O)NC7=O)cn6)CC5)cc4)cc23)ccc1CNC(=O)c1noc(C(C)(C)C)n1` (stereo not shown) [Example 14, 5-tert-butyl-N-[[4-[6-[4-[[4-[5-[(2,6-dioxo-3-piperidyl)amino]pyrimidin-2-yl]-1-piperidyl]methyl]phenyl]pyrrolo [2,1-f][1,2,4]triazin-4-yl]-2-methyl-phenyl]methyl]-1,2,4-oxadiazole-3-carboxamide] registered a DC50 below 0.1 µM.
In turn, `Cc1cc(-c2ncnn3cc(-c4ccc(CN5CCC(c6ccc(NC7CCC(=O)NC7=O)c(F)c6)CC5)cc4)cc23)ccc1CNC(=O)c1noc(C(C)(C)C)n1` (stereo not shown) [Example 18, 5-tert-butyl-N-[[4-[6-[4-[[4-[4-[(2,6-dioxo-3-piperidyl)amino]-3-fluoro-phenyl]-1-piperidyl]methyl]phenyl]pyrrolo [2,1-f][1,2,4]triazin-4-yl]-2-methyl-phenyl]methyl]-1,2,4-oxadiazole-3-carboxamide] came in with a DC50 below 0.1 µM.
As to `Cc1cc(-c2ccnc3cc(CCCCN4CCC(c5ccc6c(N7CCC(=O)NC7=O)nn(C)c6c5)CC4)nn23)ccc1CNC(=O)c1noc(C(C)(C)C)n1` [Example 300, 5-(tert-butyl)-N-(4-(2-(4-(4-(3-(2,4-dioxotetrahydropyrimidin-1(2H)-yl)-1-methyl-1H-indazol-6-yl)piperidin-1-yl)butyl)pyrazolo[1,5-a]pyrimidin-7-yl)-2-methylbenzyl)-1,2,4-oxadiazole-3-carboxamide], the DC50 was below 0.1 µM.

As a reminder, the DC50 is the midpoint of the concentration-degradation curve. A high value points to degradation only at high concentration.

The values are drawn from US20240287076A1, “COMPOUNDS FOR TARGETING DEGRADATION OF BRUTON'S TYROSINE KINASE” (BIOGEN MA INC., priority 2021, published 2024).
